Data: patent US11505815B2, “Compositions and methods related to non-templated enzymatic nucleic acid synthesis” (Nuclera Nucleics Ltd., priority 2017, dated 2022)

What was measured:
[1] = test system: engineered terminal deoxynucleotidyl transferase; assay: Enzymatic incorporation of nucleoside 5′-triphosphates with amine-masking moieties onto a DNA primer (denaturing PAGE); format: biochemical; conditions: 10 minutes at 37° C., buffer containing cobalt chloride, DNA primer with 5′-fluorophore
Protocol: FIG. 11: Enzymatic incorporation of nucleoside 5′-triphosphates with amine-masking moieties. An engineered terminal deoxynucleotidyl transferase was incubated for 10 minutes at 37° C. in an appropriate buffer containing cobalt chloride and a DNA primer with a 5′-fluorophore as well as the following nucleoside 5′-triphosphates: (A) Lane 1: No extension control; Lane 2: N6-benzyl-dATP; Lane 3: N6-benzyl-rATP; Lane 4: N6-methyl-dATP; Lane 5: N6-methyl-rATP; (B) Lane 1: No extension control; Lane 2: 3′-O-acetyl-N4-benzoyl-dCTP; (C) Lane 1: No extension control; Lane 3: N6-benzoyl-dATP; Lane 4: N4-benzoyl-dCTP. Reactions were analyzed by standard denaturing polyacrylamide gel electrophoresis (TBE buffer) and imaged with a fluorescent scanner.

[2] = Deamination time course in sodium nitrite / sodium acetate pH 5.5, analysed by LC-MS; format: physicochemical; conditions: sodium nitrite (700 mM), pH 5.5 (1 M), room temperature; for Extent of deamination (conversion to oxidative deamination product): LC chromatograms at 260 nm
Protocol: (A) LC-MS was performed on a Bruker amaZon system, with a Synergi Polar RP column. Solvents were A (20 mM ammonium acetate, pH 4.6) and B (20 mM ammonium acetate, pH 4.6 [5%]/acetonitrile [95%]). A gradient from 5-40% B in 10 minutes was run at 0.5 mL/min. Data is shown as a series of LC chromatograms at 260 nm. The ˜2.6 min peak corresponds to 2′-deoxyadenosine and the peak at ˜1.3 min corresponds to 2′-deoxyinosine (oxidative deamination product). (B) Plot of deamination percent over time. (C) Oxidative deamination reaction shown below converting 2′-deoxyadenosine to 2′deoxyinosine.
Solvents were A (20 mM ammonium acetate, pH 4.6) and B (20 mM ammonium acetate, pH 4.6 [5%]/acetonitrile [95%]). A gradient from 5-40% B in 10 minutes was run at 0.5 mL/min. Data shown as a series of LC chromatograms at two wavelengths for each time point as labeled above. The peak at ˜4.5 min retention time corresponds with 6-azido 2′-deoxyadenosine.
(A) LC-MS was performed on a Bruker amaZon system, with a Synergi Polar RP column. Solvents were A (20 mM ammonium acetate, pH 4.6) and B (20 mM ammonium acetate, pH 4.6 [5%]/acetonitrile [95%]). A gradient from 5-25% B in 10 minutes was run at 0.4 mL/min. Data is shown as a series of LC chromatograms at 260 nm. […] (B) Plot of deamination percent over time. (C) Oxidative deamination reaction shown below converting 2′-deoxycytidine (dC) to 2′-deoxyuridine (dU).
Solvents were A (20 mM ammonium acetate, pH 4.6) and B (20 mM ammonium acetate, pH 4.6 [5%]/acetonitrile [95%]). A gradient from 5-25% B in 10 minutes was run at 0.4 mL/min. […] Data shown as a series of LC chromatograms at 260 nm.

Compound	Acceptance as substrate by terminal transferase enzyme in a DNA synthesis process [1]	Deacetylation during incubation with nitrite solution ([2]; 48 hours)	Extent of deamination (conversion to oxidative deamination product) [2]
O=C(Nc1ccn([C@H]2C[C@H](O)[C@@H](COP(=O)(O)OP(=O)(O)OP(=O)(O)O)O2)c(=O)n1)c1ccccc1 [N4-benzoyl 2′-deoxycytidine triphosphate]	accepted as a substrate	–	–
CC(=O)Nc1ncnc2c1ncn2[C@@H]1O[C@H](CO)[C@@H](O)[C@H]1O [N6-acetyl A, N6-acetyl adenosine]	–	minor deacetylation	no deamination product is detected
CC(C)=CCNc1ncnc2nc[nH]c12 [N6-dimethylallylamino purine]	–	–	notable absence of peaks corresponding to dA or dI
Nc1ncnc2nc[nH]c12 [adenine, reference compound]	–	–	occur at an appreciable rate
Nc1cc[nH]c(=O)n1 [cytosine, reference compound]	–	–	occur at an appreciable rate
Nc1nc2nc[nH]c2c(=O)[nH]1 [guanine, reference compound]	–	–	occur at an appreciable rate
